Assays:
RAW264.7 macrophages [1] = assay: Cell associated mass measurements (bioaccumulation, pmole/cell); type: cell-based; conditions: 72 h incubation, normalized by number of cells
Experimental: Cell Associated Mass Measurements: […] After an overnight incubation (37 °C, 5% CO2), cells were incubated with 100 μL of the media (DMEM with 5% FBS) containing 5 × 10^−6 M clofazmine or its chemical derivatives (2.5 × 10^−6 M of Compound “I”). Media containing each compound was replaced every day during the 72 h incubation. After the incubation, media was removed and cells were washed with Hank's balanced salt solution (HBSS) buffer (No. 14025; Invitrogen) twice. RAW264.7 macrophage cells in buffer were scraped and MDCK epithelial cells were exposed to Trypsin‐EDTA solution for detachment from the plates for cell number counting and quantification of cell‐associated masses. After centrifugation (650 × g), supernatant was removed and cell pellets were resuspended in 0.1 M citric acid/0.1 M trisodium citrate buffer (pH 5) for cell counting as previously reported.7 Equal numbers of cells in 100 μL in buffer were transferred to 96 well plates and 100 μL of detergent (ATCC, 30‐1010K) was added into wells for cell lysis. Chemical absorbance from each well was measured by the UV–vis microplate reader (Synergy 2, BioTek Instruments, Winooski, VT) at 490 nm wavelength and cell‐associated mass of each compound was calculated by a standard curve generated separately using the same media and presented as pmole/cell by normalizing the amount of chemical in each cell population sample by the number of cells in each sample.

RAW264.7 macrophages [2] = assay: Cell accumulation experiment, transmitted light microscopy of cellular staining pattern; type: cell-based; conditions: for Inferred uptake: inferred from staining pattern after 72 hour incubation; for Observed cellular staining pattern (Notes): live cells, 72 hour incubation, 5 × 10^−6 M (2.5 × 10^−6 M for I); for Cellular staining relative to clofazimine: live macrophages, 72 h; for Staining in fixed cells: methanol-fixed cells incubated 72 h with compound (control)

Row | Structure (SMILES) | Accumulation in macrophages (RAW264.7 macrophages [1]) | Inferred uptake (RAW264.7 macrophages [2]) | Observed cellular staining pattern (Notes) (RAW264.7 macrophages [2]) | Cellular staining relative to clofazimine (RAW264.7 macrophages [2]) | Staining in fixed cells (RAW264.7 macrophages [2])
1 | Clc1ccc(Nc2cc3nc4ccccc4n(-c4ccc(Cl)cc4)c-3cc2=NCCc2ccccc2)cc1 [Compound P] | greatest accumulation | Excellent | Large fibrous/crystal-like brown inclusions present in live cells | more prominent staining patterns | absent in fixed cells
2 | C[C@@H](CN=c1cc2n(-c3ccc(Cl)cc3)c3ccccc3nc-2cc1Nc1ccc(Cl)cc1)c1ccccc1 [Compound U] | greatest accumulation | Good | Fibrous/crystal-like brown inclusions with orange perinuclear vesicles are present in live cells | prominent cellular staining | absent in fixed cells

Source: PMC4569013, “Massive Bioaccumulation and Self‐Assembly of Phenazine Compounds in Live Cells” (Advanced Science, 2015)
